Legend:
[1] = biological target: Type-1 angiotensin II receptor (Homo sapiens, UniProt P30556); assay: IP-One assay (AGTR1), agonist mode at up to 50 µM; assay type: functional; design: compound concentration < 50 uM
[2] = biological target: Adenosine receptor A2b (Homo sapiens) (UniProt P29275); assay: RLU of ADORA2B at 1.0 µM in the […] PRESTO-Tango GPCRome screen; details: Compound concentration 1.0 uM
[3] = biological target: Apelin receptor (Homo sapiens) (UniProt P35414); assay: RLU of APJ at 1.0 µM in the […] PRESTO-Tango GPCRome screen; details: Compound concentration 1.0 uM
[4] = biological target: Vasopressin V2 receptor (Homo sapiens) (UniProt P30518); assay: RLU of AVPR2 at 1.0 µM in the […] PRESTO-Tango GPCRome screen; details: Compound concentration 1.0 uM
Chain of Vasopressin V2 receptor (Homo sapiens) (P30518 whole entry): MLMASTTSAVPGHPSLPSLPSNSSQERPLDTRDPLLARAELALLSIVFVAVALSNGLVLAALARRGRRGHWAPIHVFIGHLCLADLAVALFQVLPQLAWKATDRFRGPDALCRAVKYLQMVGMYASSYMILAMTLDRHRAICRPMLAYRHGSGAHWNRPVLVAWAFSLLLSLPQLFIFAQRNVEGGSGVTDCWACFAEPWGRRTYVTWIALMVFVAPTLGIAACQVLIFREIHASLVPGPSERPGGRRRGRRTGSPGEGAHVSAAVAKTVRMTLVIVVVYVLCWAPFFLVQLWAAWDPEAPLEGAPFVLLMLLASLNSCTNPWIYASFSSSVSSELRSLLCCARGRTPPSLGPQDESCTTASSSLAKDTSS

[5] = biological target: C3a anaphylatoxin chemotactic receptor (Homo sapiens) (UniProt Q16581); assay: RLU of C3AR1 at 1.0 µM in the […] PRESTO-Tango GPCRome screen; details: Compound concentration 1.0 uM
[6] = biological target: Calcitonin receptor (Homo sapiens) (UniProt P30988); assay: RLU of CALCRb at 1.0 µM in the […] PRESTO-Tango GPCRome screen; details: Compound concentration 1.0 uM
Chain of Calcitonin receptor (Homo sapiens) (P30988 whole entry): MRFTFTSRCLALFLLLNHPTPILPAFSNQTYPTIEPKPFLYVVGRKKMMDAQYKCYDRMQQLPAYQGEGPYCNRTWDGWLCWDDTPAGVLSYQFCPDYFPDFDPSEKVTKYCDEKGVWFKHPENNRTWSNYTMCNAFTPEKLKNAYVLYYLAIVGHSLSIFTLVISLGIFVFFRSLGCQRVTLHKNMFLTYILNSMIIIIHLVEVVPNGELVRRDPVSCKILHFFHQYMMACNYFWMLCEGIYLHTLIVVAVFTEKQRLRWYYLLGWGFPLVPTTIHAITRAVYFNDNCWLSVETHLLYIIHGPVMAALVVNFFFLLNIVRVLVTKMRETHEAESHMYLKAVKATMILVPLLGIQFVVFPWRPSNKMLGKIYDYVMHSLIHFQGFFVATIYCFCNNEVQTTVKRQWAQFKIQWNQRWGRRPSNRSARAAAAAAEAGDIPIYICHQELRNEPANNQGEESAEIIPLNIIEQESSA

[7] = biological target: Calcitonin gene-related peptide type 1 receptor (Homo sapiens) (UniProt Q16602); assay: RLU of CALCRL at 1.0 µM in the […] PRESTO-Tango GPCRome screen; details: Compound concentration 1.0 uM
[8] = biological target: C-C chemokine receptor type 7 (Homo sapiens) (UniProt P32248); assay: RLU of CCR7 at 1.0 µM in the […] PRESTO-Tango GPCRome screen; details: Compound concentration 1.0 uM
[9] = biological target: C-C chemokine receptor type 8 (Homo sapiens) (UniProt P51685); assay: RLU of CCR8 at 1.0 µM in the […] PRESTO-Tango GPCRome screen; details: Compound concentration 1.0 uM
[10] = biological target: C-X-C chemokine receptor type 3 (Homo sapiens) (UniProt P49682); assay: RLU of CXCR3 at 1.0 µM in the […] PRESTO-Tango GPCRome screen; details: Compound concentration 1.0 uM
[11] = biological target: D(3) dopamine receptor (Homo sapiens) (UniProt P35462); assay: RLU of DRD3 at 1.0 µM in the […] PRESTO-Tango GPCRome screen; details: Compound concentration 1.0 uM
[12] = biological target: Galanin receptor type 2 (Homo sapiens) (UniProt O43603); assay: RLU of GAL2 at 1.0 µM in the […] PRESTO-Tango GPCRome screen; details: Compound concentration 1.0 uM
Chain of Galanin receptor type 2 (Homo sapiens) (O43603 whole entry): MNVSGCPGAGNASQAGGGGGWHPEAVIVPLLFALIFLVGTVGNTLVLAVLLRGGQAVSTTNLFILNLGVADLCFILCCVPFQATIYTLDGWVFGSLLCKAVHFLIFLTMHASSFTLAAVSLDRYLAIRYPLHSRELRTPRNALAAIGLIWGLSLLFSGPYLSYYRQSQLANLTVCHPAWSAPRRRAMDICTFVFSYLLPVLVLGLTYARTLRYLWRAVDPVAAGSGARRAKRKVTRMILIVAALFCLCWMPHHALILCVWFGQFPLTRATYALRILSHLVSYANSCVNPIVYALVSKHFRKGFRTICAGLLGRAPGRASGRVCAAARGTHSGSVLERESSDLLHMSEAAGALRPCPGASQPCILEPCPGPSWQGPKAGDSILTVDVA

[13] = biological target: Adhesion G-protein coupled receptor F3 (Homo sapiens) (UniProt Q8IZF5); assay: RLU of GPR113 at 1.0 µM in the […] PRESTO-Tango GPCRome screen; details: Compound concentration 1.0 uM
[14] = biological target: Probable G-protein coupled receptor 141 (Homo sapiens) (UniProt Q7Z602); assay: RLU of GPR141 at 1.0 µM in the […] PRESTO-Tango GPCRome screen; details: Compound concentration 1.0 uM
[15] = biological target: Probable G-protein coupled receptor 160 (Homo sapiens) (UniProt Q9UJ42); assay: RLU of GPR160 at 1.0 µM in the […] PRESTO-Tango GPCRome screen; details: Compound concentration 1.0 uM
[16] = biological target: 12-(S)-hydroxy-5,8,10,14-eicosatetraenoic acid receptor (Homo sapiens) (UniProt O00270); assay: RLU of GPR31 at 1.0 µM in the […] PRESTO-Tango GPCRome screen; details: Compound concentration 1.0 uM
[17] = biological target: G-protein coupled receptor 35 (Homo sapiens) (UniProt Q9HC97); assay: RLU of GPR35 at 1.0 µM in the […] PRESTO-Tango GPCRome screen; details: Compound concentration 1.0 uM
Chain of G-protein coupled receptor 35 (Homo sapiens) (Q9HC97 whole entry): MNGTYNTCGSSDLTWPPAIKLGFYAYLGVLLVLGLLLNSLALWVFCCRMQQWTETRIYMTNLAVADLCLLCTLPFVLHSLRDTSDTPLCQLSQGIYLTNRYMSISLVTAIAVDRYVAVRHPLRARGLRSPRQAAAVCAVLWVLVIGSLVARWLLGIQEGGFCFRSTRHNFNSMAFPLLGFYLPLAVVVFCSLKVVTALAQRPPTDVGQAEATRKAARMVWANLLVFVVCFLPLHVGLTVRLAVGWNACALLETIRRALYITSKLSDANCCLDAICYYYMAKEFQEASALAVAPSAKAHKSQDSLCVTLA

[18] = biological target: G-protein coupled receptor 37-like 1 (Homo sapiens) (UniProt O60883); assay: RLU of GPR37L1 at 1.0 µM in the […] PRESTO-Tango GPCRome screen; details: Compound concentration 1.0 uM
Chain of G-protein coupled receptor 37-like 1 (Homo sapiens) (O60883 whole entry): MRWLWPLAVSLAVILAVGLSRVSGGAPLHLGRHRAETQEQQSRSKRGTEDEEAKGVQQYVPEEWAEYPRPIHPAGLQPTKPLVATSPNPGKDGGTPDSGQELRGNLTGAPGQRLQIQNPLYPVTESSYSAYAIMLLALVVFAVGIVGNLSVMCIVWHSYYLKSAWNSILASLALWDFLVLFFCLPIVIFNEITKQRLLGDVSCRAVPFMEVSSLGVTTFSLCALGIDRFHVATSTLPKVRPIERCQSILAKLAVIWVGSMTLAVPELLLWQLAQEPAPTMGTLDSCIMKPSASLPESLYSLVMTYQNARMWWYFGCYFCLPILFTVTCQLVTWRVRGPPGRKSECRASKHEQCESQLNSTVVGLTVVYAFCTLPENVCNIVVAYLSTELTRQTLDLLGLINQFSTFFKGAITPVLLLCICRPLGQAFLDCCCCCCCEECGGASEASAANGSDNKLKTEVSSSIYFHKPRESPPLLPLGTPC

[19] = biological target: G-protein coupled receptor 52 (Homo sapiens) (UniProt Q9Y2T5); assay: RLU of GPR52 at 1.0 µM in the […] PRESTO-Tango GPCRome screen; details: Compound concentration 1.0 uM
Chain of G-protein coupled receptor 52 (Homo sapiens) (Q9Y2T5 whole entry): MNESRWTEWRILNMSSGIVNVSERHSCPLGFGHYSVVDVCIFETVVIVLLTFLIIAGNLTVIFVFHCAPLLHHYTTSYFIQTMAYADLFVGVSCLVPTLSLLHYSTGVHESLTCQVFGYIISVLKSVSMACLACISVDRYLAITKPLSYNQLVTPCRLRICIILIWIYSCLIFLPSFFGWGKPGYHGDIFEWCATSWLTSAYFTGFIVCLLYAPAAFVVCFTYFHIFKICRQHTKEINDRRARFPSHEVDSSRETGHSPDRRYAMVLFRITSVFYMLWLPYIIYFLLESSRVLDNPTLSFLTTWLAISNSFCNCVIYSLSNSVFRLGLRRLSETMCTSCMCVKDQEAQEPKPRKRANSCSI

[20] = biological target: Probable G-protein coupled receptor 85 (Homo sapiens) (UniProt P60893); assay: RLU of GPR85 at 1.0 µM in the […] PRESTO-Tango GPCRome screen; details: Compound concentration 1.0 uM
[21] = biological target: G-protein coupled receptor 87 (Homo sapiens) (UniProt Q9BY21); assay: RLU of GPR87 at 1.0 µM in the […] PRESTO-Tango GPCRome screen; details: Compound concentration 1.0 uM
[22] = biological target: Hydroxycarboxylic acid receptor 3 (Homo sapiens) (UniProt P49019); assay: RLU of HCA3 at 1.0 µM in the Aequorin PRESTO-Tango GPCRome screen; details: Compound concentration 1.0 uM
Chain of Hydroxycarboxylic acid receptor 3 (Homo sapiens) (P49019 whole entry): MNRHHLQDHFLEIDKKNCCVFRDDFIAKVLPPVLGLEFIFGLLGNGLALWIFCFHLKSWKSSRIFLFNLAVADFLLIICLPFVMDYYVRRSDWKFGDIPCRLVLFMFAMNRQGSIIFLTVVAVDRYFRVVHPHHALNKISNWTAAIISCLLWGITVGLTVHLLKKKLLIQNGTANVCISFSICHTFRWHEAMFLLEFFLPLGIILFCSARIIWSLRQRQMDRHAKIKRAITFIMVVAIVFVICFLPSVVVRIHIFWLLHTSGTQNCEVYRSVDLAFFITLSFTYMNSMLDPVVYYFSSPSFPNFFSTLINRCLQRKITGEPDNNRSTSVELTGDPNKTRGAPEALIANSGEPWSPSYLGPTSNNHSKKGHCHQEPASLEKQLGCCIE

[23] = biological target: Histamine H2 receptor (Homo sapiens) (UniProt P25021); assay: RLU of HRH2 at 1.0 µM in the Aequorin PRESTO-Tango GPCRome screen; details: Compound concentration 1.0 uM
[24] = biological target: 5-hydroxytryptamine receptor 1D (Homo sapiens) (UniProt P28221); assay: RLU of HTR1D at 1.0 µM in the […] PRESTO-Tango GPCRome screen; details: Compound concentration 1.0 uM
Chain of 5-hydroxytryptamine receptor 1D (Homo sapiens) (P28221 whole entry): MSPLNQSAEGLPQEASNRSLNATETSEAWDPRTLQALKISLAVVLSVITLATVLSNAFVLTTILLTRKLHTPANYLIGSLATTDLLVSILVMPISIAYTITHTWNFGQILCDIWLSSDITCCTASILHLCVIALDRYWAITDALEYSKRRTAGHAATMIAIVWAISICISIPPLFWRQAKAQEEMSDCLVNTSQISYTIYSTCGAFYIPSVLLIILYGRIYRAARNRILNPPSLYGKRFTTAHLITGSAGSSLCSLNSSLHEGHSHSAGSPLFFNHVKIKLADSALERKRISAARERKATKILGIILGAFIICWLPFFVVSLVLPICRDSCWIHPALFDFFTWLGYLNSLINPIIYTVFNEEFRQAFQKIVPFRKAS

[25] = biological target: Lysophosphatidic acid receptor 2 (Homo sapiens) (UniProt Q9HBW0); assay: RLU of LPAR2 at 1.0 µM in the […] PRESTO-Tango GPCRome screen; details: Compound concentration 1.0 uM
[26] = biological target: Melanocortin receptor 5 (Homo sapiens) (UniProt P33032); assay: RLU of MC5R at 1.0 µM in the […] PRESTO-Tango GPCRome screen; details: Compound concentration 1.0 uM
[27] = biological target: Mas-related G-protein coupled receptor member F (Homo sapiens) (UniProt Q96AM1); assay: RLU of MRGPRF at 1.0 µM in the […] PRESTO-Tango GPCRome screen; details: Compound concentration 1.0 uM
[28] = biological target: P2Y purinoceptor 2 (Homo sapiens) (UniProt P41231); assay: RLU of P2RY2 at 1.0 µM in the […] PRESTO-Tango GPCRome screen; details: Compound concentration 1.0 uM
[29] = biological target: Parathyroid hormone/parathyroid hormone-related peptide receptor (Homo sapiens) (UniProt Q03431); assay: RLU of PTH1R at 1.0 µM in the […] PRESTO-Tango GPCRome screen; details: Compound concentration 1.0 uM
Chain of Parathyroid hormone/parathyroid hormone-related peptide receptor (Homo sapiens) (Q03431 whole entry): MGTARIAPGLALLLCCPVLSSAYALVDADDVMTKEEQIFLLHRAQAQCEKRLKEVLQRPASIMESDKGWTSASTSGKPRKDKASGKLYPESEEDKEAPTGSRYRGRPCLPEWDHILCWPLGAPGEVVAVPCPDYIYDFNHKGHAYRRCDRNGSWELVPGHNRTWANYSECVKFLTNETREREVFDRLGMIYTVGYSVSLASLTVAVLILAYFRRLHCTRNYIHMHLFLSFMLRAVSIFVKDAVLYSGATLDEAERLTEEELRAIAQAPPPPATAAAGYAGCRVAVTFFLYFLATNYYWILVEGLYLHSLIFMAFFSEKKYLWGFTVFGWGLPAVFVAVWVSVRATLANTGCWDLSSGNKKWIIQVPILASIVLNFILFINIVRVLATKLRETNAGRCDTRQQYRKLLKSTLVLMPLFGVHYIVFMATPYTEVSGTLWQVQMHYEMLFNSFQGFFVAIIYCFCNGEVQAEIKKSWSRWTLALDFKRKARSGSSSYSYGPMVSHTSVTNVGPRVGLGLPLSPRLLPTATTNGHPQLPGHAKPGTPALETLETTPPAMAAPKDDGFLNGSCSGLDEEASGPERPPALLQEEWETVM

[30] = biological target: Relaxin receptor 1 (Homo sapiens) (UniProt Q9HBX9); assay: RLU of RXFP1 at 1.0 µM in the […] PRESTO-Tango GPCRome screen; details: Compound concentration 1.0 uM
[31] = biological target: Relaxin-3 receptor 2 (Homo sapiens) (UniProt Q8TDU9); assay: RLU of RXFP4 at 1.0 µM in the […] PRESTO-Tango GPCRome screen; details: Compound concentration 1.0 uM
Chain of Relaxin-3 receptor 2 (Homo sapiens) (Q8TDU9 whole entry): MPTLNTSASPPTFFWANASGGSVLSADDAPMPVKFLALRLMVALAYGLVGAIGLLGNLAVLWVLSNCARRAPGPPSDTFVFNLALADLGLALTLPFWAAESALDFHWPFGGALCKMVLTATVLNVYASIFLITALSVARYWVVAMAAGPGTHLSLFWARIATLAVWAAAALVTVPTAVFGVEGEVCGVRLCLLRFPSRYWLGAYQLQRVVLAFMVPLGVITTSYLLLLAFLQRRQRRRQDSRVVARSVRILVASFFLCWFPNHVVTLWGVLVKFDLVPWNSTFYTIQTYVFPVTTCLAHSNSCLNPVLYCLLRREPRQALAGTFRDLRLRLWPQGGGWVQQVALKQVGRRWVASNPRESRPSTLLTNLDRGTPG

[32] = biological target: Somatostatin receptor type 3 (Homo sapiens) (UniProt P32745); assay: RLU of SSTR3 at 1.0 µM in the […] PRESTO-Tango GPCRome screen; details: Compound concentration 1.0 uM
Chain of Somatostatin receptor type 3 (Homo sapiens) (P32745 whole entry): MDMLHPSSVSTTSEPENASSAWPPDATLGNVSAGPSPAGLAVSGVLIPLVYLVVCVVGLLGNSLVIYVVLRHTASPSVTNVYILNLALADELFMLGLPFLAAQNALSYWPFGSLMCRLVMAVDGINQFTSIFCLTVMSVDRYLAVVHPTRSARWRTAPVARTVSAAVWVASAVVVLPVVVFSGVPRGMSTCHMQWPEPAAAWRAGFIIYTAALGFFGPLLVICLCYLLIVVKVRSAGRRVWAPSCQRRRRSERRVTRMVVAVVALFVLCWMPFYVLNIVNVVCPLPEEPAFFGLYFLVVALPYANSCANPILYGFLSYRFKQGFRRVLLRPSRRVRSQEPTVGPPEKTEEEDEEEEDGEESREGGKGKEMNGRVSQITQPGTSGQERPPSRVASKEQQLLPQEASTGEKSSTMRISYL

[33] = biological target: Trace amine-associated receptor 6 (Homo sapiens) (UniProt Q96RI8); assay: RLU of TAAR6 at 1.0 µM in the […] PRESTO-Tango GPCRome screen; details: Compound concentration 1.0 uM
[34] = biological target: Substance-K receptor (Homo sapiens) (UniProt P21452); assay: RLU of TACR2 at 1.0 µM in the […] PRESTO-Tango GPCRome screen; details: Compound concentration 1.0 uM
Chain of Substance-K receptor (Homo sapiens) (P21452 whole entry): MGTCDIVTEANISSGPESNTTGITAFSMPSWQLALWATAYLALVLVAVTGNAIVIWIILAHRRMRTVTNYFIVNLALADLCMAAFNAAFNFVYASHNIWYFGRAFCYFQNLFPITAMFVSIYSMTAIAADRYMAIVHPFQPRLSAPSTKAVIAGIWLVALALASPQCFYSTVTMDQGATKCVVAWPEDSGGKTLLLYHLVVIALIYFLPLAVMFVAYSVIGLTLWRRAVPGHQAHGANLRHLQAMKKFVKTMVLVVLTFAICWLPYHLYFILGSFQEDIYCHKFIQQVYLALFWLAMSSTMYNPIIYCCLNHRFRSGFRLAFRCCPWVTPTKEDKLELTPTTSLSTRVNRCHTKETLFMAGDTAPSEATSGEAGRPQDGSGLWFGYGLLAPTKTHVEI

[35] = biological target: Vasoactive intestinal polypeptide receptor 1 (Homo sapiens) (UniProt P32241); assay: RLU of VIPR1 at 1.0 µM in the […] PRESTO-Tango GPCRome screen; details: Compound concentration 1.0 uM

## CCCCC(=O)N1CC2(C1)CN(c1ccccc1-c1nnn[nH]1)C2
[1]
  EC50: > 50 µM (not active)
[2]
  RLU: 6490
[3]
  RLU: 5300
[4]
  RLU: 2870
[5]
  RLU: 4830
[6]
  RLU: -5810
[7]
  RLU: 2370
[8]
  RLU: 342
[9]
  RLU: -3270
[10]
  RLU: -568
[11]
  RLU: 1160
[12]
  RLU: 1140
[13]
  RLU: 387
[14]
  RLU: 2790
[15]
  RLU: 1900
[16]
  RLU: 1300
[17]
  RLU: 2600
[18]
  RLU: 153000
[19]
  RLU: 86500
[20]
  RLU: -4210
[21]
  RLU: 8750
[22]
  RLU: 1810
[23]
  RLU: 84.8
[24]
  RLU: -12300
[25]
  RLU: -80
[26]
  RLU: 481
[27]
  RLU: -194
[28]
  RLU: 2250
[29]
  RLU: 13.4
[30]
  RLU: -1130
[31]
  RLU: 68.6
[32]
  RLU: 342
[33]
  RLU: -394
[34]
  RLU: -238
[35]
  RLU: -7190
